Test [1] has as its target T1, NS3-NS4 (Hepatitis C virus genotype 1a, UniProt P27958). Description: NS3-NS4 activity, IC50 (Example 37, Table 8). It counts as biochemical.
Test [2] has as its target T1, NS3-NS4. Briefly: cell-based. The following applies: EC50, NS3-NS4 activity.

Structures are written as SMILES.

T1 sequence (P27958 1027-1657): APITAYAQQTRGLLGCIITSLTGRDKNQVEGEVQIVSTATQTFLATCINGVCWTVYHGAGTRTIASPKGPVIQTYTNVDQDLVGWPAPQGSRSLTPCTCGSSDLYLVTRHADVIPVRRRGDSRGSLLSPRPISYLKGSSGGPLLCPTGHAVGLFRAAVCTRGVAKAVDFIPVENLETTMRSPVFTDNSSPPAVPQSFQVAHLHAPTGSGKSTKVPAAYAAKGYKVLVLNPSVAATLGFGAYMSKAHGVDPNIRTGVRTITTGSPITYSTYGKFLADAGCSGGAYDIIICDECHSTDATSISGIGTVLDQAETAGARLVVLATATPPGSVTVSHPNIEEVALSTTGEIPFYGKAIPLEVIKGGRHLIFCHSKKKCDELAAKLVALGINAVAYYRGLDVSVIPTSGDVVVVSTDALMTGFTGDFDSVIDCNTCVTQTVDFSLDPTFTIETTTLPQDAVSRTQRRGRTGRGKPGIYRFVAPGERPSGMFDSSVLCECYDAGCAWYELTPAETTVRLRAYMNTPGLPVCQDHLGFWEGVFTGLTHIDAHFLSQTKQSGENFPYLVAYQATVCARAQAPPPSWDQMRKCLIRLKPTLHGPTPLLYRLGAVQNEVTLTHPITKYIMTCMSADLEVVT
T1 sequence (P27958 1658-1711): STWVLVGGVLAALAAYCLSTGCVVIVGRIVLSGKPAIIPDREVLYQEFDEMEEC

Turning to `CC(C)(C)OC(=O)N[C@H]1CCCCC/C=C\[C@@H]2C[C@@]2(C(=O)NS(=O)(=O)Cc2cccc(F)c2)NC(=O)[C@@H]2C[C@@H](OC(=O)N3Cc4cccc(F)c4C3)CN2C1=O` [Compound 508], at NS3-NS4 [1], the IC50 is < 100 nM. For the same compound, the EC50 on NS3-NS4 [2] lay within 100 to 1000 nM.

Regarding `CC(C)(C)OC(=O)N[C@H]1CCCCC/C=C\[C@@H]2C[C@@]2(C(=O)NS(=O)(=O)C2(C)CC2)NC(=O)[C@@H]2C[C@@H](OC(=O)N3Cc4cccc(Cl)c4C3)CN2C1=O` [Compound 445], the IC50 against NS3-NS4 [1] was < 100 nM. For the same compound, the EC50 on NS3-NS4 [2] was < 100 nM.

For the compound `CN(C(=O)N[C@H]1CCCCC/C=C\[C@@H]2C[C@@]2(C(=O)NS(=O)(=O)c2ccccc2)NC(=O)[C@@H]2C[C@@H](OC(=O)N3Cc4cccc(F)c4C3)CN2C1=O)C(C)(C)C` [Compound 303, (2R,6S,13aS,14aR,16aS,Z)-6-(3-tert-butyl-3-methylureido)-5,16-dioxo-14a-(phenylsulfonylcarbamoyl)-1,2,3,5,6,7,8,9,10,11,13a,14,14a,15,16,16a-hexadecahydrocyclopropa[e]pyrrolo[1,2-a][1,4]diazacyclopentadecin-2-yl 4-fluoroisoindoline-2-carboxylate], the IC50 at NS3-NS4 [1] was < 100 nM. The EC50 on NS3-NS4 [2] is < 100 nM.

With `CCCC1(S(=O)(=O)NC(=O)[C@@]23C[C@H]2CCCCCCC[C@H](NC(=O)OC(C)(C)C)C(=O)N2C[C@H](OC(=O)N4Cc5cccc(F)c5C4)C[C@H]2C(=O)N3)CC1` [Compound 651], the IC50 at NS3-NS4 [1] is < 100 nM. In addition, the EC50 on NS3-NS4 [2] is < 100 nM.

As for `Cc1cc(F)ccc1S(=O)(=O)NC(=O)[C@@]12C[C@H]1/C=C\CCCCC[C@H](NC(=O)OC(C)(C)C)C(=O)N1C[C@H](OC(=O)N3Cc4cccc(F)c4C3)C[C@H]1C(=O)N2` [Compound 346], the IC50 on NS3-NS4 [1] was < 100 nM. Moreover, the EC50 at NS3-NS4 [2] was < 100 nM.

`COc1cccc(ONC(=O)[C@@]23C[C@H]2CCCCCCC[C@H](NC(=O)OC(C)(C)C)C(=O)N2C[C@H](OC(=O)N4Cc5cccc(F)c5C4)C[C@H]2C(=O)N3)c1` [Compound 801]: the IC50 against NS3-NS4 [1] was < 100 nM. At NS3-NS4 [2], the EC50 lay in the range of 1000 to 10000 nM.

For the compound `Cc1csc(S(=O)(=O)NC(=O)[C@@]23C[C@H]2/C=C\CCCCC[C@H](NC(=O)OC(C)(C)C)C(=O)N2C[C@H](OC(=O)N4Cc5cccc(F)c5C4)C[C@H]2C(=O)N3)c1` [Compound 539], the IC50 against NS3-NS4 [1] is < 100 nM. In addition, the concentration for a half-maximal effect (EC50) on NS3-NS4 [2] was < 100 nM.

As to `CC(C)(C)OC(=O)N[C@H]1CCCCC/C=C\[C@@H]2C[C@@]2(C(=O)NS(=O)(=O)c2cc(F)cc(F)c2)NC(=O)[C@@H]2C[C@@H](OC(=O)N3Cc4cccc(F)c4C3)CN2C1=O` [Compound 309], the IC50 against NS3-NS4 [1] was < 100 nM. Moreover, the EC50 on NS3-NS4 [2] is < 100 nM.

`O=C(N[C@H]1CCCCC/C=C\[C@@H]2C[C@@]2(C(=O)NS(=O)(=O)C2CC2)NC(=O)[C@@H]2C[C@@H](OC(=O)N3Cc4ccc(F)cc4C3)CN2C1=O)OC1CCOCC1` [Compound 410]: the IC50 at NS3-NS4 [1] is < 100 nM. The EC50 at NS3-NS4 [2] is 100 to 1000 nM.

For `CC(C)C1(S(=O)(=O)NC(=O)[C@@]23C[C@H]2CCCCCCC[C@H](NC(=O)OC(C)(C)C)C(=O)N2C[C@H](OC(=O)N4Cc5cccc(F)c5C4)C[C@H]2C(=O)N3)CC1` [Compound 653], the IC50 against NS3-NS4 [1] was < 100 nM. At NS3-NS4 [2], the EC50 is < 100 nM.

In the case of `CN(C(=O)N[C@H]1CCCCC/C=C\[C@@H]2C[C@@]2(C(=O)NS(=O)(=O)c2ccccc2Cl)NC(=O)[C@@H]2C[C@@H](OC(=O)N3Cc4cccc(F)c4C3)CN2C1=O)C(C)(C)C` [Compound 359], the IC50 against NS3-NS4 [1] is < 100 nM. The EC50 on NS3-NS4 [2] is < 100 nM.

In the case of `O=C1N[C@]2(C(=O)NS(=O)(=O)C3CC3)C[C@H]2/C=C\CCCCC[C@H](NC(=O)N2CC(F)(F)C2)C(=O)N2C[C@H](OC(=O)N3Cc4cccc(F)c4C3)C[C@@H]12` [Compound 418], the IC50 against NS3-NS4 [1] is < 100 nM. At NS3-NS4 [2], the concentration for a half-maximal effect (EC50) is < 100 nM.

As to `O=C1N[C@]2(C(=O)NS(=O)(=O)C3CC3)C[C@H]2/C=C\CCCCC[C@H](Nc2nc(-c3ccc(Cl)cc3)cs2)C(=O)N2C[C@H](OC(=O)N3Cc4cccc(F)c4C3)C[C@@H]12` [Compound 207], on NS3-NS4 [1], the 50% inhibitory concentration (IC50) is < 100 nM. For the same compound, the EC50 on NS3-NS4 [2] is < 100 nM.

Take `O=C(N[C@H]1CCCCC/C=C\[C@@H]2C[C@@]2(C(=O)NS(=O)(=O)c2ccc(Cl)cc2)NC(=O)[C@@H]2C[C@@H](OC(=O)N3Cc4cccc(F)c4C3)CN2C1=O)OC1CCC1` [Compound 339]: the IC50 on NS3-NS4 [1] is < 100 nM. In addition, the EC50 on NS3-NS4 [2] was < 100 nM.

In the case of `COc1ccc(S(=O)(=O)NC(=O)[C@@]23C[C@H]2/C=C\CCCCC[C@H](NC(=O)OC(C)(C)C)C(=O)N2C[C@H](OC(=O)N4Cc5cccc(F)c5C4)C[C@H]2C(=O)N3)cc1` [Compound 352], on NS3-NS4 [1], the IC50 was < 100 nM. Also, the concentration for a half-maximal effect (EC50) on NS3-NS4 [2] was < 100 nM.

In the case of `O=C1N[C@]2(C(=O)NS(=O)(=O)C3CC3)C[C@H]2/C=C\CCCCC[C@H](NC(=O)N2CCC(F)(F)C2)C(=O)N2C[C@H](OC(=O)N3Cc4cccc(F)c4C3)C[C@@H]12` [Compound 416], the IC50 on NS3-NS4 [1] is < 100 nM. Also, on NS3-NS4 [2], the EC50 is 100 to 1000 nM.

As for `CC(C)(C)OC(=O)N[C@H]1CCCCC[C@@H]2C[C@@H]2[C@@H]2C[C@@]2(C(=O)NS(=O)(=O)C2(C)CC2)NC(=O)[C@@H]2C[C@@H](OC(=O)N3Cc4cccc(F)c4C3)CN2C1=O` [Compound 901], the IC50 at NS3-NS4 [1] is < 100 nM. At NS3-NS4 [2], the EC50 is < 100 nM.

As for `CCCS(=O)(=O)NC(=O)[C@@]12C[C@H]1/C=C\CCCCC[C@H](NC(=O)OC(C)(C)C)C(=O)N1C[C@H](OC(=O)N3Cc4cccc(F)c4C3)C[C@H]1C(=O)N2` [Compound 550], the IC50 at NS3-NS4 [1] is < 100 nM. For the same compound, the EC50 at NS3-NS4 [2] is < 100 nM.

Turning to `Cc1ccccc1S(=O)(=O)NC(=O)[C@@]12C[C@H]1/C=C\CCCCC[C@H](NC(=O)N(C)C(C)(C)C)C(=O)N1C[C@H](OC(=O)N3Cc4cccc(F)c4C3)C[C@H]1C(=O)N2` [Compound 358], the IC50 against NS3-NS4 [1] is < 100 nM. The EC50 on NS3-NS4 [2] was < 100 nM.

In the case of `CC(C)ONC(=O)[C@@]12C[C@H]1CCCCCCC[C@H](NC(=O)OC(C)(C)C)C(=O)N1C[C@H](OC(=O)N3Cc4cccc(F)c4C3)C[C@H]1C(=O)N2` [Compound 812], the half-maximal inhibitory concentration (IC50) on NS3-NS4 [1] was < 100 nM. Besides, at NS3-NS4 [2], the EC50 was < 100 nM.

As to `CN(C(=O)N[C@H]1CCCCC/C=C\[C@@H]2C[C@@]2(C(=O)NS(=O)(=O)C2CC2)NC(=O)[C@@H]2C[C@@H](OC(=O)N3Cc4cccc(Cl)c4C3)CN2C1=O)C(C)(C)C` [Compound 424], at NS3-NS4 [1], the IC50 is < 100 nM. Moreover, the EC50 at NS3-NS4 [2] was < 100 nM.

In the case of `Cc1ccc(C)c(ONC(=O)[C@@]23C[C@H]2/C=C\CCCCC[C@H](NC(=O)OC(C)(C)C)C(=O)N2C[C@H](OC(=O)N4Cc5cccc(F)c5C4)C[C@H]2C(=O)N3)c1` [Compound 713], the IC50 at NS3-NS4 [1] was < 100 nM. The compound further came in with an EC50 at NS3-NS4 [2] of 1000 to 10000 nM.

Regarding `CC(=O)O[C@@H]1C[C@H]2C(=O)N[C@]3(C(=O)NS(=O)(=O)C4CC4)C[C@H]3/C=C\CCCCC[C@H](Nc3nc(-c4ccccc4)c(-c4ccccc4)s3)C(=O)N2C1` [Compound 235], on NS3-NS4 [1], the IC50 is < 100 nM. Moreover, the EC50 on NS3-NS4 [2] is 100 to 1000 nM.

Take `Cc1ccccc1CS(=O)(=O)NC(=O)[C@@]12C[C@H]1CCCCCCC[C@H](NC(=O)OC(C)(C)C)C(=O)N1C[C@H](OC(=O)N3Cc4cccc(F)c4C3)C[C@H]1C(=O)N2` [Compound 613]: the IC50 against NS3-NS4 [1] was < 100 nM. Also, the EC50 on NS3-NS4 [2] was < 100 nM.

`CC(C)ONC(=O)[C@@]12C[C@H]1/C=C\CCCCC[C@H](NC(=O)OC(C)(C)C)C(=O)N1C[C@H](OC(=O)N3Cc4cccc(F)c4C3)C[C@H]1C(=O)N2` [Compound 718]: the IC50 against NS3-NS4 [1] was < 100 nM. In addition, the EC50 at NS3-NS4 [2] was < 100 nM.
